Measured values taken from patent US12365668B2, “Aminopyrazine diol compounds as PI3K-y inhibitors” (Incyte Corporation, priority 2018, dated 2025).

Columns and labels:
[1] = system: Phosphorylated Ribosomal Protein S6 (RPS6) in THP-1 cells; test: THP-1 RPS6 ELISA Assay; format: cell-based, Human; settings: Homo sapiens, serum starved, 2 hours compound, 10 nM MCP-1 for 15 minutes, Phospho-RPS6 ELISA, read-out: PI3Kγ_THP1_RPS6_ELISA IC50
Experimental: Example A. THP-1 RPS6 ELISA Assay
To measure the Phosphorylated Ribosomal Protein S6 (RPS6) in cell lysates, THP-1 cells (Human Acute Monocytic Leukemia) are purchased from ATCC (Manassas, VA) and maintained in RPMI with 10% FBS (Gibco/Life Technologies, Carlsbad, CA). For the assay, THP-1 cells are serum starved overnight in RPMI, then plated in RPMI (2×10^5 cells/well in 90 μL) into 96-well flat-bottom tissue culture treated plates (Corning, Corning, NY), in the presence or absence of a concentration range of test compounds. Covered plates are incubated for 2 hours at 37° C., 5% CO2 then treated with or without 10 nM MCP-1(MYBioSource, San Diego, CA) for 15 minutes at 37° C., 5% CO2. Plates are centrifuged at 1600 RPM and supernatants are removed. Cells are lysed in Lysis Buffer (Cell Signaling, Danvers, MA) with Protease Inhibitor (Calbiochem/EMD, Germany), PMSF (Sigma, St Louis MO), HALTS (Thermo Fisher, Rockford, IL) for 30 min on wet ice. Cell lysates are frozen at −80° C. before testing. The lysates are tested in the Human/Mouse/Rat Phospho-RPS6 ELISA (R&D Systems, Inc. Minn, MN). The plate is measured using a microplate reader (SpectraMax M5—Molecular Devices, LLC Sunnyvale, CA) set to 450 nm with a wavelength correction of 540. IC50 determination is performed by fitting the curve of inhibitor percent inhibition versus the log of the inhibitor concentration using the GraphPad Prism 5.0 software.

[2] = molecular target: PI3Kδ (p110δ/p85α) Recombinant Human Protein (Homo sapiens (Human), UniProt O00329); test: PI3Kδ Scintillation Proximity Assay; format: biochemical; settings: 20 μM PIP2, 2 μM ATP, SPA
Text: Example C. PI3Kδ Scintillation Proximity Assay Materials: [γ-^33P]ATP (10 mCi/mL) and Wheat Germ Agglutinin (WGA) YSi SPA Scintillation Beads was purchased from Perkin Elmer (Waltham, MA). Lipid kinase substrate, D-myo-Phosphatidylinositol 4,5-bisphosphate (PtdIns(4,5)P2)D (+)-sn-1,2-di-O-octanoylglyceryl, 3-O-phospho linked (PIP2), CAS 204858-53-7, was purchased from Echelon Biosciences (Salt Lake City, UT). PI3Kδ (p110δ/p85α) Recombinant Human Protein was purchased from Eurofins (St Charles, MO). ATP, MgCl2, DTT, EDTA, MOPS and CHAPS were purchased from Sigma Aldrich (St. Louis, MO). The kinase reaction was conducted in polystyrene 384-well Greiner Bio-one white plate from Thermo Fisher Scientific in a final volume of 25 μL. Inhibitors were first diluted serially in DMSO and added to the plate wells before the addition of other reaction components. The final concentration of DMSO in the assay was 2%. The PI3Kδ assay was carried out at room temperature in 20 mM MOPS, pH 6.7, 10 mM MgCl2, 5 mM DTT and CHAPS 0.03%. Reactions were initiated by the addition of ATP, the final reaction mixture consisted of 20 μM PIP2, 2 μM ATP, 0.5 μCi [γ-^33P] ATP, 3.4 nM PI3Kδ. Reactions were incubated for 120 min and terminated by the addition of 40 μL SPA beads suspended in quench buffer: 163 mM potassium phosphate pH 7.8, 20% glycerol, 25 mM EDTA. The final concentration of SPA beads is 1.0 mg/mL. After the plate sealing, plates were shaken overnight at room temperature and centrifuged at 1500 rpm for 10 min, the radioactivity of the product was determined by scintillation counting on Topcount (PerkinElmer). IC50 determination was performed by fitting the curve of percent of the solvent control activity versus the log of the inhibitor concentration using the GraphPad Prism 6.0 software.

[3] = molecular target: PI3Kγ (p110γ) Recombinant Human Protein (Homo sapiens (Human), UniProt P48736); test: PI3K-γ Scintillation Proximity Assay; format: biochemical; settings: 20 μM PIP2, 2 μM ATP, SPA
Text: Example B. PI3K-γ Scintillation Proximity Assay Materials: [γ-^33P]ATP (10 mCi/mL) and Wheat Germ Agglutinin (WGA) YSi SPA Scintillation Beads was purchased from Perkin Elmer (Waltham, MA). Lipid kinase substrate, D-myo-Phosphatidylinositol 4,5-bisphosphate (PtdIns(4,5)P2)D (+)-sn-1,2-di-O-octanoylglyceryl, 3-O-phospho linked (PIP2), CAS 204858-53-7, was purchased from Echelon Biosciences (Salt Lake City, UT). PI3Kγ (p110γ) Recombinant Human Protein was purchased from Life technology (Grand Island, NY). ATP, MgCl2, DTT, EDTA, MOPS and CHAPS were purchased from Sigma Aldrich (St. Louis, MO). The kinase reaction was conducted in polystyrene 384-well Greiner Bio-one white plate from Thermo Fisher Scientific in a final volume of 25 μL. Inhibitors were first diluted serially in DMSO and added to the plate wells before the addition of other reaction components. The final concentration of DMSO in the assay was 2%. The PI3Kγ assay was carried out at room temperature in 20 mM MOPS, pH 6.7, 10 mM MgCl2, 5 mM DTT and CHAPS 0.03%. Reactions were initiated by the addition of ATP, the final reaction mixture consisted of 20 μM PIP2, 2 μM ATP, 0.5 μCi [γ-^33P] ATP, 13 nM PI3Kγ. Reactions were incubated for 120 min and terminated by the addition of 40 μL SPA beads suspended in quench buffer: 163 mM potassium phosphate pH 7.8, 20% glycerol, 25 mM EDTA. The final concentration of SPA beads is 1.0 mg/mL. After the plate sealing, plates were shaken overnight at room temperature and centrifuged at 1500 rpm for 10 min, the radioactivity of the product was determined by scintillation counting on Topcount (Perkin-Elmer). IC50 determination was performed by fitting the curve of percent of the solvent control activity versus the log of the inhibitor concentration using the GraphPad Prism 6.0 software.

PI3Kγ (p110γ) Recombinant Human Protein, sequence (P48736 whole entry): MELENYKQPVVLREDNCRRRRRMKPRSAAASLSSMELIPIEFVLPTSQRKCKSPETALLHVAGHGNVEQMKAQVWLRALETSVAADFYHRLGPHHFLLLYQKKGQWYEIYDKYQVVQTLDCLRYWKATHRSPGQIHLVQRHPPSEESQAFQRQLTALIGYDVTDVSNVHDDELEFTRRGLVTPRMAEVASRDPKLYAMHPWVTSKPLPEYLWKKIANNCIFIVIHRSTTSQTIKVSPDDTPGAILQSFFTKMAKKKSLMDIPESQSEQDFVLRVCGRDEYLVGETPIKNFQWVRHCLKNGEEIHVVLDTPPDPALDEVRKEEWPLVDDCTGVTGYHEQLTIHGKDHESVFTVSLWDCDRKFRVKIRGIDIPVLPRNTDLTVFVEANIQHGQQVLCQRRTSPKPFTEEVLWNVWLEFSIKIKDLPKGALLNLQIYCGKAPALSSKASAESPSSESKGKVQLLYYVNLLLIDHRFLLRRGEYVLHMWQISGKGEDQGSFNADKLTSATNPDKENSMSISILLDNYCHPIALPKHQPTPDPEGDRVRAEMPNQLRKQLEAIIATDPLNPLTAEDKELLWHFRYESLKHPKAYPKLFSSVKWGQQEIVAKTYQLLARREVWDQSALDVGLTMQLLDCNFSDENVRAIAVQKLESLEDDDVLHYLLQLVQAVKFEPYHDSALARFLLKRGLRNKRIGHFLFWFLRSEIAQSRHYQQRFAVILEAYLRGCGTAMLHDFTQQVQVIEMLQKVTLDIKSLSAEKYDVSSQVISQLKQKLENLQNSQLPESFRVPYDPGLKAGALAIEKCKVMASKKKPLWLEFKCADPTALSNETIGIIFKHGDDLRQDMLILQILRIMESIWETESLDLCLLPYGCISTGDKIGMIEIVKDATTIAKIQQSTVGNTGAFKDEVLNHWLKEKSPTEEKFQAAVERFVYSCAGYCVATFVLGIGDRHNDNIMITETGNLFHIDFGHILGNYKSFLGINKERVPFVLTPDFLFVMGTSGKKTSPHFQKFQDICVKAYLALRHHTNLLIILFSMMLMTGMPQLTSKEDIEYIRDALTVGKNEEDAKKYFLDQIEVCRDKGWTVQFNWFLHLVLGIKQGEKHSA
PI3Kδ (p110δ/p85α) Recombinant Human Protein, sequence (O00329 whole entry): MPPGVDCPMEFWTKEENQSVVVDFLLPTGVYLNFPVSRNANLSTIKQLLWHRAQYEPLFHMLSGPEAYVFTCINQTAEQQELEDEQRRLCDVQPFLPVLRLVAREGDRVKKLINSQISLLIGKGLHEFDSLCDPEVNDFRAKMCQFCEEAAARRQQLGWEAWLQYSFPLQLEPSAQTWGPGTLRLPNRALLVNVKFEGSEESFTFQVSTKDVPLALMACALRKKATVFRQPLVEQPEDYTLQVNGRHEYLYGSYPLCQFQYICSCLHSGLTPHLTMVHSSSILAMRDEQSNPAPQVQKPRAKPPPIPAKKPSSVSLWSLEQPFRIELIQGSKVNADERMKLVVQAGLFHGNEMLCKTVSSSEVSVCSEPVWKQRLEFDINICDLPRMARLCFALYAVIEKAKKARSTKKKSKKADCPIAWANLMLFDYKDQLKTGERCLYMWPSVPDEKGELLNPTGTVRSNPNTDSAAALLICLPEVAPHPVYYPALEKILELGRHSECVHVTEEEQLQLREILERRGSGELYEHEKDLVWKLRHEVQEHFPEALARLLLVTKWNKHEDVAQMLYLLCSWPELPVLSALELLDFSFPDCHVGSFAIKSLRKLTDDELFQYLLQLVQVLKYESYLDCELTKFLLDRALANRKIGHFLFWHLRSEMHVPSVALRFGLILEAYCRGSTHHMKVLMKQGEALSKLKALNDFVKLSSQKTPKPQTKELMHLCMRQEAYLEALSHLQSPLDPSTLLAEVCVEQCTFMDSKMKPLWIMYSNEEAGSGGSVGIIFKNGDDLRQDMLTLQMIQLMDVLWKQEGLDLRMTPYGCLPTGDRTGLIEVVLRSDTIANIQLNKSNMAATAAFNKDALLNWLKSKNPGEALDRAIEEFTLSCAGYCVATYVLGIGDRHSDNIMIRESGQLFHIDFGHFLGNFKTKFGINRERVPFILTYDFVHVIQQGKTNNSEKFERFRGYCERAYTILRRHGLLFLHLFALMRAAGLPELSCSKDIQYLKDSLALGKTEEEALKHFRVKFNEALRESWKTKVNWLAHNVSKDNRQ
PI3Kδ (p110δ/p85α) Recombinant Human Protein, sequence (P27986 whole entry partner): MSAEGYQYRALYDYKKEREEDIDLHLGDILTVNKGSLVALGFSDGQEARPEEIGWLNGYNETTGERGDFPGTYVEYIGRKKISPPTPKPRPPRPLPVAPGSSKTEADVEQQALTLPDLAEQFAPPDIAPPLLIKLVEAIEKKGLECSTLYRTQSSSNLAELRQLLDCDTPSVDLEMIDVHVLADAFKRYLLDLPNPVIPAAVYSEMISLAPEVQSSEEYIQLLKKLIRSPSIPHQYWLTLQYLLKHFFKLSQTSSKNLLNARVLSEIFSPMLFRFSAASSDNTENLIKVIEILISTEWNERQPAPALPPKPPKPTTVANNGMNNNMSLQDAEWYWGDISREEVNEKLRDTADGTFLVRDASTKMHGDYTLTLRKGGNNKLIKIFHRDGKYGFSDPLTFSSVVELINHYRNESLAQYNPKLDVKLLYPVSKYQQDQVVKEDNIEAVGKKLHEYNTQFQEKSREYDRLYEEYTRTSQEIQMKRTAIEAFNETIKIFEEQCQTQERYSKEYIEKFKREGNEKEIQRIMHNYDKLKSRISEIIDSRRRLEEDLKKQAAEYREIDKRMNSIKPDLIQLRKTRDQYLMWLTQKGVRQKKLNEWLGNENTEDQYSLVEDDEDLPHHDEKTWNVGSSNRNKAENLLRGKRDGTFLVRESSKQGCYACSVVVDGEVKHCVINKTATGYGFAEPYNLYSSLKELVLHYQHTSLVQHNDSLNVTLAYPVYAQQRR

IC50 [1] | IC50 [2] | IC50 [3] | SMILES
 | ≤ 0.1 µM | ≤ 0.1 µM | Cc1ccc(C(O)(CO)C(F)(F)F)cc1-c1cnc(N)c(-c2cnn(C)c2)n1 (stereo not shown) [Example 2, 2-(3-(5-Amino-6-(1-methyl-1H-pyrazol-4-yl)pyrazin-2-yl)-4-methylphenyl)-3,3,3-trifluoropropane-1,2-diol]
 | ≤ 0.1 µM | ≤ 0.1 µM | Cc1cc(-c2nc(-c3cc(C(O)(CO)C(F)(F)F)ccc3C)cnc2N)on1 (stereo not shown) [Example 4, 2-(3-(5-Amino-6-(3-methylisoxazol-5-yl)pyrazin-2-yl)-4-methylphenyl)-3,3,3-trifluoropropane-1,2-diol]
 | ≤ 0.1 µM | ≤ 0.1 µM | Cc1ccc(C(O)(CO)C(F)(F)F)cc1-c1cnc(N)c(-c2ccns2)n1 (stereo not shown) [Example 6, 2-(3-(5-Amino-6-(isothiazol-5-yl)pyrazin-2-yl)-4-methylphenyl)-3,3,3-trifluoropropane-1,2-diol]
 | ≤ 0.1 µM | ≤ 0.1 µM | Cc1cc(-c2nc(-c3cc(C(O)(CO)C(F)(F)F)ccc3C)cnc2N)sn1 (stereo not shown) [Example 7, 2-(3-(5-amino-6-(3-methylisothiazol-5-yl)pyrazin-2-yl)-4-methylphenyl)-3,3,3-trifluoropropane-1,2-diol]
 | ≤ 0.1 µM | ≤ 0.1 µM | Cc1ncc(-c2nc(-c3cc(C(O)(CO)C(F)(F)F)ccc3C)cnc2N)s1 (stereo not shown) [Example 10, 2-(3-(5-Amino-6-(2-methylthiazol-5-yl)pyrazin-2-yl)-4-methvlphenyl)-3,3,3-trifluoropropane-1,2-diol]
 | ≤ 0.1 µM | ≤ 0.1 µM | Cc1ccc(C(O)(CO)C(F)(F)F)cc1-c1cnc(N)c(-c2cnco2)n1 (stereo not shown) [Example 11, 2-(3-(5-Amino-6-(oxazol-5-yl)pyrazin-2-yl)-4-methylphenyl)-3,3,3-trifluoropropane-1,2-diol]

The next lines start with the compound.

SMILES | IC50 [1] | IC50 [2] | IC50 [3]
[2H]C([2H])([2H])c1ccc(C(O)(C(C)O)C(F)(F)F)cc1-c1cnc(N)c(C(=O)NC2CCOCC2)n1 (single isomer, unassigned) [Example 19, 3-Amino-6-(2-(methyl-d3)-5-(1,1,1-trifluoro-2,3-dihydroxybutan-2-yl)phenyl)-N-(tetrahydro-2H-pyran-4-yl)pyrazine-2-carboxamide] | 0.1 to 0.5 µM |  | 
Cc1ccc(C(O)(CO)C(F)(F)F)cc1-c1cnc(N)c(C2CC(C(=O)N3CC(O)C3)C2)n1 (single isomer, unassigned) [Example 24, (3-(3-Amino-6-(2-methyl-5-(1,1,1-trifluoro-2,3-dihydroxypropan-2-yl)phenyl)pyrazin-2-yl)cyclobutyl)(3-hydroxyazetidin-1-yl)methanone] | 0.1 to 0.5 µM |  | 
Cc1ccc([C@](O)(CO)C(F)F)cc1-c1cnc(N)c(C(=O)N[C@@H](C)CO)n1 (single isomer, unassigned) [Example 43] | 0.1 to 0.5 µM | 0.1 to 0.5 µM | 
Cc1ccc(C(O)(CO)C(F)(F)F)cc1-c1cnc(N)c(-c2cn[nH]c2)n1 (stereo not shown) [Example 3, 2-(3-(5-Amino-6-(1H-pyrazol-4-yl)pyrazin-2-yl)-4-methylphenyl)-3,3,3-trifluoropropane-1,2-diol] |  | ≤ 0.1 µM | ≤ 0.1 µM
Cc1ccc(C(O)(CO)C(F)(F)F)cc1-c1cnc(N)c(-c2cnsc2)n1 (stereo not shown) [Example 5, 2-(3-(5-Amino-6-(isothiazol-4-yl)pyrazin-2-yl)-4-methylphenyl)-3,3,3-trifluoropropane-1,2-diol] |  | ≤ 0.1 µM | ≤ 0.1 µM
Cc1ccc(C(O)(CO)C(F)(F)F)cc1-c1cnc(N)c(-n2ccnn2)n1 (stereo not shown) [Example 13, 2-(3-(5-Amino-6-(1H-1,2,3-triazol-1-yl)pyrazin-2-yl)-4-methylphenyl)-3,3,3-trifluoropropane-1,2-diol] |  | ≤ 0.1 µM | ≤ 0.1 µM
[2H]C([2H])([2H])c1ccc(C(O)(C(O)C(F)(F)F)C(F)(F)F)cc1-c1cnc(N)c(-c2c[nH]nc2C)n1 (stereo not shown) [Example 20, 2-(3-(5-Amino-6-(3-methyl-1H-pyrazol-4-yl)pyrazin-2-yl)-4-(methyl-d3)phenyl)-1,1,1,4,4,4-hexafluorobutane-2,3-diol] |  | 0.1 to 0.5 µM | 
Cc1ccc(C(O)(C(C)(C)O)C(F)(F)F)cc1-c1cnc(N)c(C(=O)NC2CCOCC2)n1 (stereo not shown) [Example 22, 3-Amino-6-(2-methyl-5-(1,1,1-trifluoro-2,3-dihydroxy-3-methylbutan-2-yl)phenyl)-N-(tetrahydro-2H-pyran-4-yl)pyrazine-2-carboxamide] |  | 0.1 to 0.5 µM | 
Cc1ccc(C(O)(CO)C(F)(F)F)cc1-c1cnc(N)c(C2CN(S(=O)(=O)c3ccn(C)n3)C2)n1 (stereo not shown) [Example 23, 2-(3-(5-Amino-6-(1-((1-methyl-1H-pyrazol-3-yl)sulfonyl)azetidin-3-yl)pyrazin-2-yl)-4-methylphenyl)-3,3,3-trifluoropropane-1,2-diol] | 0.1 to 0.5 µM | 0.1 to 0.5 µM | 
[2H]C([2H])([2H])c1ccc([C@](O)(CO)C(F)(F)F)cc1-c1cnc(N)c(C(=O)N[C@H](C)CO)n1 [Example 36, 3-Amino-N-((R)-1-hydroxypropan-2-yl)-6-(2-(methyl-d3)-5-((S)-1,1,1-trifluoro-2,3-dihydroxypropan-2-yl)phenyl)pyrazine-2-carboxamide] | 0.1 to 0.5 µM |  | 
[2H]C([2H])([2H])c1ccc([C@](O)(CO)C(F)F)cc1-c1cnc(N)c(C(=O)N[C@H]2CCCC[C@@H]2O)n1 [Example 38, 3-Amino-6-(5-((S)-1,1-difluoro-2,3-dihydroxypropan-2-yl)-2-(methyl-d3)phenyl)-N-((1S,2S)-2-hydroxycyclohexyl)pyrazine-2-carboxamide] | 0.1 to 0.5 µM |  | 
[2H]C([2H])([2H])c1ccc([C@](O)(CO)C(F)F)cc1-c1cnc(N)c(C(=O)N[C@@H]2CCCC[C@H]2O)n1 [Example 39, 3-Amino-6-(5-((S)-1,1-difluoro-2,3-dihydroxypropan-2-yl)-2-(methyl-d3)phenyl)-N-((1R,2R)-2-hydroxycyclohexyl)pyrazine-2-carboxamide] | 0.1 to 0.5 µM |  | 
Cc1ccc([C@](O)(CO)C(F)F)cc1-c1cnc(N)c(C(=O)NC(C)C)n1 [Example 46, (S)-3-Amino-6-(5-(1,1-difluoro-2,3-dihydroxypropan-2-yl)-2-methylphenyl)-N-isopropylpyrazine-2-carboxamide] |  | ≤ 0.1 µM | ≤ 0.1 µM
